According to EP3243509A1, “OROBUCCAL ABSORPTION COMPOSITION FOR NEURO-PROTECTION” (priority 2016, dated 2017):

Tests used:
multiple sclerosis (MS) = settings: part intravenously, part per os; Hartstein and Ulett 1957; cited from earlier work
[1] = tested on: rat model with Alzheimer disease; settings: Salkovic-Petrisic et al. 2014; cited from earlier work
[2] = tested on: open-angle acute primary glaucoma; assay: Clinical Case Report 2; format: in vivo, patient; settings: ophthalmic treatment for IOP, after 4 months of treatment

Row | Compound | symptoms of the disease (multiple sclerosis (MS)) | effect of the oral treatment (learning capacity and memory) [1] | field of vision and acuity [2]
1 | O=C[C@H](O)[C@@H](O)[C@@H](O)[C@H](O)CO [D-galactose] | improved the symptoms of the disease | beneficial effect | 
2 | CC(C)NCC(O)COc1ccc(CCOCC2CC2)cc1 (stereo not drawn) [beta-toxolol, betaxolol] |  |  | not improved
